Read-outs that look alike come from different tables or passages of the source.
Biological target: T1, GK (glucokinase, residues 12-465) (Homo sapiens, UniProt P35557)
T1 construct: I.D. No. 1 corresponds to residues 12-465 of glucokinase; made in house; host or cells: DH10b-T1r E. coli
T1 sequence (P35557 with tags, fused parts or gaps isoform P35557-2): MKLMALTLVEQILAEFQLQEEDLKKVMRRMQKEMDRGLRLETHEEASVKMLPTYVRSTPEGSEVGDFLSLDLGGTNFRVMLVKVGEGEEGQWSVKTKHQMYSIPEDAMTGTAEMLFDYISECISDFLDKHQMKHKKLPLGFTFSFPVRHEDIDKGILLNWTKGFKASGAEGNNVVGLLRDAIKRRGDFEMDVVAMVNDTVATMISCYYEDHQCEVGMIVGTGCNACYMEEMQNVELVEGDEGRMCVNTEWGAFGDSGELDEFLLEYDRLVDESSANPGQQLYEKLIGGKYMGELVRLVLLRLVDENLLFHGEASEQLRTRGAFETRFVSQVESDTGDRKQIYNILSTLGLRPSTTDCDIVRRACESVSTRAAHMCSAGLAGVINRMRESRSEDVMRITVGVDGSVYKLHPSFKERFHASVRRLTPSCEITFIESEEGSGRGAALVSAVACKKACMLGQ
Test: enzymatic glucokinase activity assay (ATP consumption, KinaseGlo luminescence)
Assay type: biochemical
Conditions: 5 μM ATP, 5 mM Glucose, reported as bins; for EC50: Kact = concentration that displays 50% of the maximal increase in GK activity, 60 min, room temperature, read-out: pKact
Outline: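 E. coli-expressed recombinant GK purified by two anion-exchange steps. Reaction in 25 mM Hepes pH 7.2, 10 mM MgCl2, 1 mM DTT, 5 μM ATP, 5 mM glucose, 2% DMSO, 60 min at room temperature. ATP consumption quantified by KinaseGlo luminescence; pKact and % ACTmax derived by non-linear curve fitting.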

[1] = calculated maximal gain in GK enzyme activity at a saturating concentration of the compound, read-out: % ACTmax

EC50 [µM] | Emax [1] [%] | Compound | Emax (read-out: % ACTmax, calculated maximal gain in GK enzyme activity at a saturating concentration of the compound) [%]
3.98 to 12.6 | 90 to 100 | Cn1ccc(NC(=O)[C@@H](CC2CCOCC2)n2ncc3c(S(=O)(=O)C4CC4)c(F)ccc32)n1 [Compound 166, (R)-2-(4-(cyclopropylsulfonyl)-5-fluoro-1H-indazol-1-yl)-N-(1-methyl-1H-pyrazol-3-yl)-3-(tetrahydro-2H-pyran-4-yl)propanamide] | 
3.98 to 12.6 | ≤ 90 | Cn1ccc(NC(=O)C(CC2CCOCC2)n2cc3c(S(=O)(=O)C4CC4)cc(Cl)cc3n2)n1 (stereo not shown) [Compound 167, 2-(6-chloro-4-(cyclopropylsulfonyl)-2H-indazol-2-yl)-N-(1-methyl-1H-pyrazol-3-yl)-3-(tetrahydro-2H-pyran-4-yl)propanamide] | 
≥ 15.8 | ≤ 90 | O=C(Nc1cnccn1)C(CC1CCOCC1)n1cc2c(S(=O)(=O)C3CC3)cc(Cl)cc2n1 (stereo not shown) [Compound 168, 2-(6-chloro-4-(cyclopropylsulfonyl)-2H-indazol-2-yl)-N-(pyrazin-2-yl)-3-(tetrahydro-2H-pyran-4-yl)propanamide] | 
≥ 15.8 | ≤ 90 | O=C(Nc1cnccn1)C(CC1CCOCC1)n1cc2c(S(=O)(=O)C3CC3)cncc2n1 (stereo not shown) [Compound 169, 2-(4-(cyclopropylsulfonyl)-2H-pyrazolo[3,4-c]pyridin-2-yl)-N-(pyrazin-2-yl)-3-(tetrahydro-2H-pyran-4-yl)propanamide] | 
≥ 15.8 | ≤ 90 | Cn1ccc(NC(=O)C(CC2CCOCC2)n2ncc3c(S(=O)(=O)C4CC4)cc(N)nc32)n1 (stereo not shown) [Compound 170, 2-(6-amino-4-(cyclopropylsulfonyl)-1H-pyrazolo[3,4-b]pyridin-1-yl)-N-(1-methyl-1H-pyrazol-3-yl)-3-(tetrahydro-2H-pyran-4-yl)propanamide] | 

The remaining lines, values behind:

Compound | EC50 [µM] | Emax [1] [%] | Emax (read-out: % ACTmax, calculated maximal gain in GK enzyme activity at a saturating concentration of the compound) [%]
Nc1cc(S(=O)(=O)C2CC2)c2cnn([C@@H](CC3CCOCC3)C(=O)Nc3cnccn3)c2n1 [Compound 164, (S)-2-(6-amino-4-(cyclopropylsulfonyl)-1H-pyrazolo[3,4-b]pyridin-1-yl)-N-(pyrazin-2-yl)-3-(tetrahydro-2H-pyran-4-yl)propanamide] | 0.398 to 1.26 | 106 to 110 | 
Cn1ccc(NC(=O)[C@H](CC2CCOCC2)n2ncc3c(S(=O)(=O)C4CC4)c(F)ccc32)n1 [Compound 165, (S)-2-(4-(cyclopropylsulfonyl)-5-fluoro-1H-indazol-1-yl)-N-(1-methyl-1H-pyrazol-3-yl)-3-(tetrahydro-2H-pyran-4-yl)propanamide] | ≤ 0.316 | 90 to 100 | 
O=C(Nc1cnccn1)[C@H](CC1CCOCC1)n1ncc2c(S(=O)(=O)C3CC3)cncc21 [Compound 171, (S)-2-(4-(cyclopropylsulfonyl)-1H-pyrazolo[3,4-c]pyridin-1-yl)-N-(pyrazin-2-yl)-3-(tetrahydro-2H-pyran-4-yl)propanamide] | 1.58 to 3.16 |  | 106 to 110
